Measured values published in ChEMBL document CHEMBL1147275, “An Antibiotic from Trichoderma Koningii Active Against Soilborne Plant Pathogens” (1989).

Tests used:
Type in all cases: functional
[1] = tested on: Gaeumannomyces tritici; test: Antimicrobial activity of agar culture isolated compound against Gaeumannomyces graminis var. tritici assessed as colony area after 2 days
[2] = tested on: Fusarium oxysporum; test: Antimicrobial activity of agar culture isolated compound against Fusarium oxysporum assessed as colony area after 1 day
[3] = tested on: Fusarium oxysporum; test: Antimicrobial activity of agar culture isolated compound against Fusarium oxysporum assessed as colony area after 2 days
[4] = tested on: Gaeumannomyces tritici; test: Antimicrobial activity of broth culture isolated compound against Gaeumannomyces graminis var. tritici assessed as colony area after 5 days
[5] = tested on: Phytophthora cinnamomi; test: Antimicrobial activity of agar culture isolated compound against Phytophthora cinnamomi assessed as colony area after 2 days
[6] = tested on: Gaeumannomyces tritici; test: Antimicrobial activity of agar culture isolated compound against Gaeumannomyces graminis var. tritici assessed as colony area after 3 days
[7] = tested on: Gaeumannomyces tritici; test: Antimicrobial activity of broth culture isolated compound against Gaeumannomyces graminis var. tritici assessed as colony area after 3 days
[8] = tested on: Rhizoctonia solani; test: Antimicrobial activity of agar culture isolated compound against Rhizoctonia solani assessed as colony area after 3 days
[9] = tested on: Gaeumannomyces tritici; test: Antimicrobial activity of broth culture isolated compound against Gaeumannomyces graminis var. tritici assessed as colony area after 4 days
[10] = tested on: Phytophthora cinnamomi; test: Antimicrobial activity of agar culture isolated compound against Phytophthora cinnamomi assessed as colony area after 1 day
[11] = tested on: Bipolaris sorokiniana; test: Antimicrobial activity of agar culture isolated compound against Bipolaris sorokiniana assessed as colony area after 1 day
[12] = tested on: Gaeumannomyces tritici; test: Antimicrobial activity of broth culture isolated compound against Gaeumannomyces graminis var. tritici assessed as colony area after 6 days
[13] = tested on: Gaeumannomyces tritici; test: Antimicrobial activity of agar culture isolated compound against Gaeumannomyces graminis var. tritici assessed as colony area after 1 day
[14] = tested on: Globisporangium middletonii; test: Antimicrobial activity of agar culture isolated compound against Pythium middletonii assessed as colony area after 3 days
[15] = tested on: Bipolaris sorokiniana; test: Antimicrobial activity of agar culture isolated compound against Bipolaris sorokiniana assessed as colony area after 3 days
[16] = tested on: Phytophthora cinnamomi; test: Antimicrobial activity of agar culture isolated compound against Phytophthora cinnamomi assessed as colony area after 3 days
[17] = tested on: Globisporangium middletonii; test: Antimicrobial activity of agar culture isolated compound against Pythium middletonii assessed as colony area after 2 days
[18] = tested on: Rhizoctonia solani; test: Antimicrobial activity of agar culture isolated compound against Rhizoctonia solani assessed as colony area after 1 day
[19] = tested on: Globisporangium middletonii; test: Antimicrobial activity of agar culture isolated compound against Pythium middletonii assessed as colony area after 1 day
[20] = tested on: Fusarium oxysporum; test: Antimicrobial activity of agar culture isolated compound against Fusarium oxysporum assessed as colony area after 3 days
[21] = tested on: Bipolaris sorokiniana; test: Antimicrobial activity of agar culture isolated compound against Bipolaris sorokiniana assessed as colony area after 2 days
[22] = tested on: Rhizoctonia solani; test: Antimicrobial activity of agar culture isolated compound against Rhizoctonia solani assessed as colony area after 2 days
[23] = tested on: Gaeumannomyces tritici; test: Antimicrobial activity of broth culture isolated compound against Gaeumannomyces graminis var. tritici assessed as colony area after 2 days

Compound: CCCCCC[C@H](O)[C@@H]1C[C@@H](O)C2=C(O1)[C@H](O)CCC2=O
- Activity [1]: 42 mm2
- Activity [2]: 46 mm2
- Activity [3]: 103 mm2
- Activity [4]: 198 mm2
- Activity [5]: 38 mm2
- Activity [6]: 44 mm2
- Activity [7]: 33 mm2
- Activity [8]: 46 mm2
- Activity [9]: 63 mm2
- Activity [10]: 37 mm2
- Activity [11]: 44 mm2
- Activity [12]: 549 mm2
- Activity [13]: 40 mm2
- Activity [14]: 232 mm2
- Activity [15]: 45 mm2
- Activity [16]: 92 mm2
- Activity [17]: 184 mm2
- Activity [18]: 38 mm2
- Activity [19]: 38 mm2
- Activity [20]: 170 mm2
- Activity [21]: 46 mm2
- Activity [22]: 42 mm2
- Activity [23]: 32 mm2
